Values after ≈ are worked out from the molar mass of the structure shown. Values joined by “and” are separate entries in the source; they are usually repeats but may differ in a detail not shown here. Identical values can stand only once. Like-named read-outs stand apart in the source and are kept apart here.
Assays:
[1] = tested on: Alternaria alternata AL19; assay: MIC, micro-spectrophotometric growth assay (phytopathogens); format: cell-based; details: Alternaria alternata AL19; PDB, 24 °C, dark; imazalil at label dose; read-out: Minimum inhibitory concentration (MIC)
[2] = tested on: Botrytis cinerea B2; assay: as above; format: cell-based; details: Botrytis cinerea B2; PDB, 24 °C, dark; imazalil at label dose; read-out: Minimum inhibitory concentration (MIC)
[3] = tested on: Colletotrichum acutatum s.s. M146-2; assay: as above; format: cell-based, Colletotrichum acutatum sensu stricto; details: Colletotrichum acutatum s.s. M146-2, PDB, 24 °C, dark, imazalil at label dose, read-out: Minimum inhibitory concentration (MIC)
[4] = tested on: Coniella granati M0_C2; assay: as above; format: cell-based; details: Coniella granati M0_C2; PDB, 24 °C, dark; imazalil at label dose; read-out: Minimum inhibitory concentration (MIC)
[5] = tested on: Candida albicans ATCC 10321; assay: MIC, broth microdilution (human pathogens); format: cell-based; details: ATCC10321; Candida albicans ATCC 10321; SDB, 30 °C, 48 h; read-out: Minimum inhibitory concentration (MIC)
[6] = tested on: Candida albicans SC 5314; assay: MIC, broth microdilution (human pathogens); format: cell-based; details: SC5314; Candida albicans SC 5314; SDB, 30 °C, 48 h; read-out: Minimum inhibitory concentration (MIC)
[7] = tested on: Candida albicans 1; assay: MIC, broth microdilution (human pathogens); format: cell-based; details: Candida albicans 1; SDB, 30 °C, 48 h; read-out: Minimum inhibitory concentration (MIC)
[8] = tested on: Candida albicans 2; assay: MIC, broth microdilution (human pathogens); format: cell-based; details: Candida albicans 2; SDB, 30 °C, 48 h; read-out: Minimum inhibitory concentration (MIC)
[9] = tested on: Candida albicans H; assay: MIC, broth microdilution (human pathogens); format: cell-based; details: Candida albicans H; SDB, 30 °C, 48 h; read-out: Minimum inhibitory concentration (MIC)
[10] = tested on: Candida albicans 40; assay: MIC, broth microdilution (human pathogens); format: cell-based; details: Candida albicans 40; SDB, 30 °C, 48 h; read-out: Minimum inhibitory concentration (MIC)
[11] = tested on: Candida albicans 41; assay: MIC, broth microdilution (human pathogens); format: cell-based; details: Candida albicans 41; SDB, 30 °C, 48 h; read-out: Minimum inhibitory concentration (MIC)
[12] = tested on: Candida albicans 44; assay: MIC, broth microdilution (human pathogens); format: cell-based; details: Candida albicans 44; SDB, 30 °C, 48 h; read-out: Minimum inhibitory concentration (MIC)
[13] = tested on: Candida parapsilosis; assay: MIC, broth microdilution (human pathogens); format: cell-based; details: Lodderomyces parapsilosis; Candida parapsilosis; SDB, 30 °C, 48 h; read-out: Minimum inhibitory concentration (MIC)
[14] = tested on: Candida parapsilosis 7; assay: MIC, broth microdilution (human pathogens); format: cell-based; details: Lodderomyces parapsilosis; Candida parapsilosis 7; SDB, 30 °C, 48 h; read-out: Minimum inhibitory concentration (MIC)
[15] = tested on: Candida zeylanoides 33; assay: MIC, broth microdilution (human pathogens); format: cell-based; details: Dujonia zeylanoides; Candida zeylanoides 33; SDB, 30 °C, 48 h; read-out: Minimum inhibitory concentration (MIC)
[16] = tested on: Saccharomyces cerevisiae 42; assay: MIC, broth microdilution (human pathogens); format: cell-based; details: Saccharomyces cerevisiae 42; SDB, 30 °C, 48 h; read-out: Minimum inhibitory concentration (MIC)
[17] = tested on: Aspergillus brasiliensis ATCC 16404; assay: MIC, broth microdilution (human pathogens); format: cell-based; details: ATCC16404; Aspergillus brasiliensis ATCC 16404; SDB, 30 °C, 48 h; read-out: Minimum inhibitory concentration (MIC)
[18] = tested on: Aspergillus candidus 3; assay: MIC, broth microdilution (human pathogens); format: cell-based; details: Aspergillus candidus 3; SDB, 30 °C, 48 h; read-out: Minimum inhibitory concentration (MIC)
[19] = tested on: Aspergillus candidus 25; assay: MIC, broth microdilution (human pathogens); format: cell-based; details: Aspergillus candidus 25; SDB, 30 °C, 48 h; read-out: Minimum inhibitory concentration (MIC)
[20] = tested on: Cryptococcus neoformans B 3501; assay: MIC, broth microdilution (human pathogens); format: cell-based; details: B3501; Cryptococcus neoformans B 3501; SDB, 30 °C, 48 h; read-out: Minimum inhibitory concentration (MIC)
[21] = tested on: Cryptococcus neoformans ATCC 11240; assay: MIC, broth microdilution (human pathogens); format: cell-based; details: ATCC11240; Cryptococcus neoformans ATCC 11240; SDB, 30 °C, 48 h; read-out: Minimum inhibitory concentration (MIC)
[22] = tested on: Cryptococcus 67; assay: MIC, broth microdilution (human pathogens); format: cell-based; details: Cryptococcus 67; SDB, 30 °C, 48 h; read-out: Minimum inhibitory concentration (MIC)
[23] = tested on: Cryptococcus var. grubii H99 serotype A; assay: MIC, broth microdilution (human pathogens); format: cell-based; details: Cryptococcus var. grubii H99 serotype A; SDB, 30 °C, 48 h; read-out: Minimum inhibitory concentration (MIC)
[24] = tested on: Candida strains; assay: Agar Disk Diffusion Assay, Candida strains; format: cell-based; details: for share of Candida strains with inhibition zone from 21 to 30 mm: 25 μg; for zone of inhibition at 25 µg/disc: positive controls, for the stated share of Candida strains
[25] = tested on: other genera tested (other fungi strains); assay: Agar Disk Diffusion Assay, other genera; format: cell-based; details: 100 µg
Experimental: The antifungal activity of pomegranate compounds was evaluated against 19 clinically isolated fungal strains, including nine belonging to Candida albicans species, two belonging to Aspergillus genus, one belonging to Cryptococcus genus, and one Saccharomyces cerevisiae. The C. albicans strains were isolated on CHROMID agar, Aspergillus and Cryptococcus genus were isolated on SDA-CAF and one Saccharomyces cerevisiae on SDA. All the isolates were confirmed by matrix-assisted laser desorption ionization (MALDI) time-of-flight mass spectrometry (TOF/MS). Strains from the American Type Culture Collection (ATCC) were included. All strains were maintained in SDB with 20% (w/v) glycerol at −80 °C until use and sub-cultured in SDA before each test.
The preliminary determination of the antifungal activity of the target compounds (punicalagin, punicalin, ellagic acid, and gallic acid) from pomegranate was carried out by means of the agar disk diffusion assay, according to the standard procedure of the Clinical and Laboratory Standards Institute, with slight modifications. Plates containing SDA were uniformly spread with 100 μL of 10^3 conidia/mL of each strain suspension. […] Disks containing fluconazole (25 μg), amphotericin B (25 μg) and DMSO (20 μL) were used as the positive and the negative control, respectively. The antifungal activity of pomegranate compounds was evaluated by measuring the diameter of the clear inhibition zone formed right around the disks after 48 h incubation at 30 ± 1 °C. The experiment was carried out in triplicate.

[26] = biological target: T1, topoisomerase I from Candida albicans (Candida albicans, UniProt Q00313); assay: Topoisomerase I supercoiled DNA relaxation inhibition; format: biochemical
T1 sequence (Q00313 1-778): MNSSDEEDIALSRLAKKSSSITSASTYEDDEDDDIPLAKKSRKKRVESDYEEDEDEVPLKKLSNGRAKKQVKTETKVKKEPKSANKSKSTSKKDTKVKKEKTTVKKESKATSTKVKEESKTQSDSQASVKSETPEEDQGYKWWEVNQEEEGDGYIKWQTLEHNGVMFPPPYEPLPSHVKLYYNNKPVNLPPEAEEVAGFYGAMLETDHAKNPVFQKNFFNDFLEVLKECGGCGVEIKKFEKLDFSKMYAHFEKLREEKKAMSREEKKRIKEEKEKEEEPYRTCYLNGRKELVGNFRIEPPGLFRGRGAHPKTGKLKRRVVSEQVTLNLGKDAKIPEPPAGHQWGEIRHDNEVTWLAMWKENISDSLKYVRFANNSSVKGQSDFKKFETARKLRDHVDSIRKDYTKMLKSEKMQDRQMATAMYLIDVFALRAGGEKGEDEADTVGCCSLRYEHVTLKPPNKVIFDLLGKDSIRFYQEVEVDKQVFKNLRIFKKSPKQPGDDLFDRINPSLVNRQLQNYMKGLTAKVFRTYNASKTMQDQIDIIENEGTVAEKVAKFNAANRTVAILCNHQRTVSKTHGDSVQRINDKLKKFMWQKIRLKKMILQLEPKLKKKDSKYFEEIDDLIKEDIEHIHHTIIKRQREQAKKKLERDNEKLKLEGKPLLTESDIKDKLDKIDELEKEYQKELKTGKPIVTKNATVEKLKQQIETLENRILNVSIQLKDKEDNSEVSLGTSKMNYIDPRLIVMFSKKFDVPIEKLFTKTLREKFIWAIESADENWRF

MIC [5] [µM]	MIC [6] [µM]	MIC [7] [µM]	MIC [8] [µM]	MIC [9] [µM]	MIC [10] [µM]	MIC [11] [µM]	MIC [12] [µM]	MIC [13] [µM]	MIC [14] [µM]	MIC [15] [µM]	MIC [16] [µM]	MIC [17] [µM]	MIC [18] [µM]	MIC [19] [µM]	MIC [20] [µM]	MIC [21] [µM]	MIC [22] [µM]	MIC [23] [µM]	Compound	MIC [1]	also measured
–	–	–	–	–	–	–	–	–	–	–	–	–	–	–	–	–	–	–	C=CCOC(Cn1ccnc1)c1ccc(Cl)cc1Cl (stereo not shown) [Imazalil, imazalil, reference compound]	0.3 µM (≈ 0.0892 µg/mL)	MIC [2]: 0.3 µM (≈ 0.0892 µg/mL); MIC ([3]; S.S.M1462): 0.3 µM (≈ 0.0892 µg/mL); MIC [4]: 0.3 µM (≈ 0.0892 µg/mL)
0.1 (≈ 0.0924 µg/mL)	0.1 (≈ 0.0924 µg/mL)	2.2 (≈ 2.03 µg/mL)	4.3 (≈ 3.97 µg/mL)	4.3 (≈ 3.97 µg/mL)	0.3 (≈ 0.277 µg/mL)	0.3 (≈ 0.277 µg/mL)	2.2 (≈ 2.03 µg/mL)	0.1 (≈ 0.0924 µg/mL)	0.3 (≈ 0.277 µg/mL)	0.1 (≈ 0.0924 µg/mL)	1.1 (≈ 1.02 µg/mL)	0.1 (≈ 0.0924 µg/mL)	0.3 (≈ 0.277 µg/mL)	0.3 (≈ 0.277 µg/mL)	0.1 (≈ 0.0924 µg/mL)	0.1 (≈ 0.0924 µg/mL)	0.1 (≈ 0.0924 µg/mL)	0.1 (≈ 0.0924 µg/mL)	C[C@@H]1[C@H](O)[C@@H](C)/C=C/C=C/C=C/C=C/C=C/C=C/C=C/[C@H](O[C@@H]2O[C@H](C)[C@@H](O)[C@H](N)[C@@H]2O)C[C@@H]2O[C@](O)(C[C@@H](O)C[C@@H](O)[C@H](O)CC[C@@H](O)C[C@@H](O)CC(=O)O[C@H]1C)C[C@H](O)[C@H]2C(=O)O [Amphotericin B, amphotericin B, reference compound]	–	share of Candida strains with inhibition zone from 21 to 30 mm [24]: 46%; zone of inhibition at 25 µg/disc [24]: 21 to 30 mm
40.8 (≈ 12.5 µg/mL)	9.8 (≈ 3 µg/mL)	81.6 (≈ 25 µg/mL)	163 (≈ 50 µg/mL)	81.6 (≈ 25 µg/mL)	163 (≈ 50 µg/mL)	81.6 (≈ 25 µg/mL)	81.6 (≈ 25 µg/mL)	9.8 (≈ 3 µg/mL)	19.6 (≈ 6 µg/mL)	19.6 (≈ 6 µg/mL)	4.9 (≈ 1.5 µg/mL)	4.9 (≈ 1.5 µg/mL)	9.8 (≈ 3 µg/mL)	9.8 (≈ 3 µg/mL)	4.9 (≈ 1.5 µg/mL)	4.9 (≈ 1.5 µg/mL)	9.8 (≈ 3 µg/mL)	4.9 (≈ 1.5 µg/mL)	OC(Cn1cncn1)(Cn1cncn1)c1ccc(F)cc1F [Fluconazole, fluconazole, reference compound]	–	share of Candida strains with inhibition zone from 21 to 30 mm [24]: 73%; zone of inhibition at 25 µg/disc [24]: 21 to 30 mm
–	–	–	–	–	–	–	–	–	–	–	–	–	–	–	–	–	–	–	CC[C@@]1(O)C(=O)OCc2c1cc1n(c2=O)Cc2cc3ccccc3nc2-1 [Camptothecin, camptothecin, reference compound]	–	IC50 [26]: 17.8 ± 0.7 µM

Compound	MIC [5] [µM]	MIC [6] [µM]	MIC [7] [µM]	MIC [8] [µM]	MIC [9] [µM]	MIC [10] [µM]	MIC [11] [µM]	MIC [12] [µM]	MIC [13] [µM]	MIC [14] [µM]	MIC [15] [µM]	MIC [16] [µM]	MIC [17] [µM]	MIC [18] [µM]	MIC [19] [µM]	MIC [20] [µM]	MIC [21] [µM]	MIC [22] [µM]	MIC [23] [µM]	MIC [1]	also measured
O=C(O)c1cc(O)c(O)c(O)c1 [Gallic Acid, gallic acid]	294 (≈ 50 µg/mL)	294 (≈ 50 µg/mL)	294 (≈ 50 µg/mL)	294 (≈ 50 µg/mL)	588 (≈ 100 µg/mL)	588 (≈ 100 µg/mL)	294 (≈ 50 µg/mL)	294 (≈ 50 µg/mL)	294 (≈ 50 µg/mL)	588 (≈ 100 µg/mL)	588 (≈ 100 µg/mL)	588 (≈ 100 µg/mL)	8.8 (≈ 1.5 µg/mL)	17.6 (≈ 2.99 µg/mL)	17.6 (≈ 2.99 µg/mL)	4.4 (≈ 0.749 µg/mL)	4.4 (≈ 0.749 µg/mL)	8.8 (≈ 1.5 µg/mL)	4.4 (≈ 0.749 µg/mL)	587.8 µM and 588 µM	MIC [2]: 587.8 µM and 588 µM; MIC [3]: 587.8 µM (≈ 100 µg/mL); MIC ([3]; S.S.M1462): 588 µM (≈ 100 µg/mL); MIC [4]: 587.8 µM and 588 µM; share of Candida strains with inhibition zone from 11 to 20 mm ([24]; 100 µg): 73%; share of other fungi strains with inhibition zone from 11 to 20 mm [25]: 25%
